Key:
[1] = target: T1, recombinant human estradiol receptors (rhER) alpha (α) (Homo sapiens, UniProt P03372); test: in vitro competitive binding assay, displacement of radiolabeled 17b-estradiol, rhER alpha; conditions: result in words; highest concentration 2.5×E-4 M
T1 sequence (P03372 1-595): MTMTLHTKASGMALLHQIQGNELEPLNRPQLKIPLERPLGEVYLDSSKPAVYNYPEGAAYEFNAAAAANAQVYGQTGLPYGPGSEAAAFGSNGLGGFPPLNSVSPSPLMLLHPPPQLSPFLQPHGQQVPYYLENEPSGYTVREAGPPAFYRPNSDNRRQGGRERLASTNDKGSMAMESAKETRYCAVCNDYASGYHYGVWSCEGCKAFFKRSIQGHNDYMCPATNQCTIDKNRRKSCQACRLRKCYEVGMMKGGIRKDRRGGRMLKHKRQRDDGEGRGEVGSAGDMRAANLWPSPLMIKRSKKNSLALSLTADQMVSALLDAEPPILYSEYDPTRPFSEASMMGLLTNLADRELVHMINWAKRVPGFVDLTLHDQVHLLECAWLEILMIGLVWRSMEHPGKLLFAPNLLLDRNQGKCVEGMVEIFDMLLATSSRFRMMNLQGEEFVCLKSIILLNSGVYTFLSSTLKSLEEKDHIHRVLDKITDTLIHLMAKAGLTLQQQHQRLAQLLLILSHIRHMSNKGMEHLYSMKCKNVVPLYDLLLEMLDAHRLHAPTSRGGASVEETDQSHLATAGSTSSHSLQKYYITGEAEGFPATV

[2] = target: recombinant human estradiol receptors (rhER) beta 1 (β1) (Homo sapiens, UniProt Q92731); test: in vitro competitive binding assay, displacement of radiolabeled 17b-estradiol, rhER beta 1; conditions: result in words; highest concentration 2.5×E-4 M
Sequence of recombinant human estradiol receptors (rhER) beta 1 (β1) (Q92731 whole entry): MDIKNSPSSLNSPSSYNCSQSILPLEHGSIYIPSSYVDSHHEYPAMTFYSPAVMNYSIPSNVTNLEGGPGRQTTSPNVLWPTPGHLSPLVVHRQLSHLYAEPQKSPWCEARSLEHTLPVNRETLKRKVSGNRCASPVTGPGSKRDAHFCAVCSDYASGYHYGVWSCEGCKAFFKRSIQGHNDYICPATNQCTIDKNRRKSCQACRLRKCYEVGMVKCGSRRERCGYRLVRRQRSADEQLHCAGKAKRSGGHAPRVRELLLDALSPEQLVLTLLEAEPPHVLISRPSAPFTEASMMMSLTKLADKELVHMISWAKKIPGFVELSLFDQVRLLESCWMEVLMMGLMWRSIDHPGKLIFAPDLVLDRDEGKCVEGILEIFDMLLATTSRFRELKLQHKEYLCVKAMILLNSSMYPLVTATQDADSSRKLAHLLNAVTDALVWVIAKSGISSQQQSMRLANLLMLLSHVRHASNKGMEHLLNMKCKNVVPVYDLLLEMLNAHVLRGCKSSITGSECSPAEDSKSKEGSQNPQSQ

In the case of `COc1cc(C(C)(C)c2ccc(O)c(OC)c2)ccc1O` [compound 1, 4,4′ (2,2′-isoPropylidene)-Bis(ortho Methoxy)Phenol (PBMP)], the “estradiol binding activity, alpha receptor binding” value [1] is reported as “no estradiol binding activity” and the “estradiol binding activity, beta receptor binding” value [2] is reported as “no estradiol binding activity”.

From US9120893B1, “Alkoxy polycarbonates, bisphenol monomers and methods of making and using the same” (SABIC Global Technologies B.V., priority 2014, dated 2015)
